Test results as given in patent US20230382924A1, “MODULATORS OF CYSTIC FIBROSIS TRANSMEMBRANE CONDUCTANCE REGULATOR” (VERTEX PHARMACEUTICALS INCORPORATED, priority 2020, published 2023).

Assays:
[1] = target: T1, CFTR (Homo sapiens, UniProt P13569); experiment: Membrane Potential Dye, Enteroid Assay A; assay type: cell-based; details: for EC50: read-out: Ent. A EC50
Outline: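 Enteroid cells were loaded with methyl oxonol membrane potential dye (plus CaCCinh-A01 and Chicago Sky Blue) for 25 min at room temperature. Chloride transport was started by switching to chloride-free gluconate stimulation solution, with fluorescence read for 15 min. Activity was expressed as % of a triple-combination CFTR modulator control (3 μM, 3 μM, 300 nM acute).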

[2] = target: T1, CFTR; experiment: Membrane Potential Dye, Enteroid Assay B; assay type: cell-based; details: for EC50: read-out: Ent. B EC50
Protocol: Base medium (ADF+++) consisted of Advanced DMEM/Ham's F12, 2 mM Glutamax, 10 mM HEPES, […] penicillin/streptomycin.
Bath 1 Buffer consisted of 1 mM MgCl2, 160 mM NaCl, 4.5 mM KCl, 10 mM HEPES, 10 mM Glucose, 2 mM CaCl2).
Chloride Free Buffer consisted of 1 mM Magnesium Gluconate, 2 mM Calcium Gluconate, 4.5 mM Potassium Gluconate, 160 mM Sodium Gluconate, 10 mM HEPES, 10 mM Glucose.
Bath 1 Dye Solution consisted of Bath 1 Buffer, 0.04% Pluronic F127, 20 μM Methyl Oxonol, 30 μM CaCCinh-A01, 30 μM Chicago Sky Blue.
Chloride Free Dye Solution consisted of Chloride Free Buffer, 0.04% Pluronic F127, 20 μM Methyl Oxonol, 30 μM CaCCinh-A01, 30 μM Chicago Sky Blue.
3. Enteroid Cell Harvesting and Seeding
Cells were recovered in cell recovery solution, collected by centrifugation at 650 rpm for 5 min at 4° C., resuspended in TryPLE and incubated for 5 min at 37° C. Cells were then collected by centrifugation at 650 rpm for 5 min at 4° C. and resuspended in IEMM containing 10 μM ROCK inhibitor (RI).
5. Membrane Potential Dye, Enteroid Assay B
Briefly, cells were washed 5 times in Bath 1 Buffer. Bath 1 Dye Solution was added and the cells were incubated for 25 min at room temperature. Following dye incubation, cells were washed 3 times in Chloride Free Dye Solution. Chloride transport was initiated by addition of Chloride Free Dye Stimulation Solution and the fluorescence signal was read for 15 min.

T1 sequence (P13569 with tags, fused parts or gaps DEL508-508): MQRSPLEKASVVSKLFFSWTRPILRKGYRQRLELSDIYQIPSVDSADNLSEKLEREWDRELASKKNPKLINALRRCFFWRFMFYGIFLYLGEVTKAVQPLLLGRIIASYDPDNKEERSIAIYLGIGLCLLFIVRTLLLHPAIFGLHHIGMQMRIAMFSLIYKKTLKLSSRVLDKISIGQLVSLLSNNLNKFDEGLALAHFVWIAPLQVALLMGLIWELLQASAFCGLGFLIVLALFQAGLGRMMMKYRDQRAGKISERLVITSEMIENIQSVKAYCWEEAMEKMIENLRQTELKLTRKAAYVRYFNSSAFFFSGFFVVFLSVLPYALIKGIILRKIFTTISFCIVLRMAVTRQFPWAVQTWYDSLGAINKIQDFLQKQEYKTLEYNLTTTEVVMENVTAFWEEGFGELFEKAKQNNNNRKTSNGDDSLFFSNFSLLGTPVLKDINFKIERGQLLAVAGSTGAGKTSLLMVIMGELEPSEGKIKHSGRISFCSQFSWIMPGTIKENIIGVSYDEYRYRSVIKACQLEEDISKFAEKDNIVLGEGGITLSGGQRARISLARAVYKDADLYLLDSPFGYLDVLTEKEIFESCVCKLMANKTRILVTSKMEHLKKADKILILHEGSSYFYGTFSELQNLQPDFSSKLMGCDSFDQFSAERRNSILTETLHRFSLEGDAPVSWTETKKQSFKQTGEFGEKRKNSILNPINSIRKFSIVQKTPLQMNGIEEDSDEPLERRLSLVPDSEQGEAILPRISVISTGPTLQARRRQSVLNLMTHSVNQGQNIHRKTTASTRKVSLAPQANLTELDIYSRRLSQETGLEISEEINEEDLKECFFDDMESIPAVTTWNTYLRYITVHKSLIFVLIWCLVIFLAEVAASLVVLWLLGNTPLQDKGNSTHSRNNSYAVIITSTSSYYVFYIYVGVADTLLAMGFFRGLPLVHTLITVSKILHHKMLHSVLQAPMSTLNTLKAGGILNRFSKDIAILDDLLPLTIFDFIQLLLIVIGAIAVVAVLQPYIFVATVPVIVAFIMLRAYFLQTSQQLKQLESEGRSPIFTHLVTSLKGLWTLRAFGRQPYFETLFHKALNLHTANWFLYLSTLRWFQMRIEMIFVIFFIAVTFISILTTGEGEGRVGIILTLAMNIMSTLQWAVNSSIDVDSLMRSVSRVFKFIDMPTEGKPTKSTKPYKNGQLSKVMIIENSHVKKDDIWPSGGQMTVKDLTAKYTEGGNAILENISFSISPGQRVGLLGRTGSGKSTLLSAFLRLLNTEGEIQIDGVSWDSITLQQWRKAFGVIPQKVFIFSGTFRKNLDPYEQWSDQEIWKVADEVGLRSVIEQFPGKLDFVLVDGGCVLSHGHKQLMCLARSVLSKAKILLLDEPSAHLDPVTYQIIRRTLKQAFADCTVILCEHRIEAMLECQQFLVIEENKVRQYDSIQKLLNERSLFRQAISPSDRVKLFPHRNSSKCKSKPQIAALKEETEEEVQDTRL

| Compound | Ent. A Max Activity ([1]; Table 9) | EC50 ([1]; Table 9) [nM] | Ent. B Max Activity ([2]; Table 9) | EC50 ([2]; Table 9) [nM] | other results |
| --- | --- | --- | --- | --- | --- |
| Cc1cccc(C)c1-c1cc2nc(n1)NS(=O)(=O)c1cccc(c1)C(=O)N[C@@H]1CN(Cc3ccccc3)C[C@H]1O2 [Compound 383] | +++ (+++ is >60%) | < 1000 | +++ (+++ is >60%) | < 1000 | – |
| Cc1cccc(C)c1-c1cc2nc(n1)NS(=O)(=O)c1cccc(c1)C(=O)NC[C@@H](c1ccc(CCC3(C(F)(F)F)CC3)cc1)O2 [Compound 146] | +++ (+++ is >60%) | < 1000 | +++ (+++ is >60%) | < 1000 | – |
| Cc1cccc(C)c1-c1cc2nc(n1)NS(=O)(=O)c1cccc(c1)C(=O)NC[C@H](c1ccc(/C=C/C(C)(C)C)cc1)O2 (stereo in doubt) [Compound 150] | ++ (++ is 30-60%) | < 1000 | ++ (++ is 30-60%) | < 1000 | – |
| Cc1cccc(C)c1-c1cc2nc(n1)NS(=O)(=O)c1cccc(c1)C(=O)N[C@@H]1CN(c3ccc(C(F)(F)F)cn3)C[C@H]1O2 [Compound 62, (3R,7R)-19-(2,6-Dimethylphenyl)-5-[5-(trifluoromethyl)pyridin-2-yl]-2-oxa-15λ^6-thia-5,8,16,18,21-pentaazatetracyclo[15.3.1.110,14.03,7]docosa-1(20),10(22),11,13,17(21),18-hexaene-9,15,15-trione] | +++ (+++ is >60%) | < 1000 | ++ (++ is 30-60%) | < 1000 | – |
| Cc1ccc(C2CNC(=O)c3cccc(c3)S(=O)(=O)Nc3nc(cc(-c4c(C)cccc4C)n3)O2)cc1 (centres unmarked) [Compound 405] | – | – | – | – | EC50 ([1]; Table 8): < 1000 nM; Ent. B Max Activity ([2]; Table 8): ++ (++ is 306%); EC50 ([2]; Table 8): < 1000 nM |
| Cc1cccc(C)c1-c1cc2nc(n1)NS(=O)(=O)c1cccc(c1)C(=O)NC[C@H](c1ccc(C(C)(C)C)cc1)O2 (single isomer, unassigned) [Compound 4] | – | – | – | – | Ent. A Max Activity ([1]; Table 8): + (+ is <30%); EC50 ([1]; Table 8): 3000 to 30000 nM; Ent. B Max Activity ([2]; Table 8): + (+ is <30%) |
| Cc1cccc(C)c1-c1cc2nc(n1)NS(=O)(=O)c1cccc(c1)C(=O)N[C@@H]1CN(c3ncc(C(F)(F)F)cn3)C[C@H]1O2 [Compound 372] | +++ (+++ is >60%) | < 1000 | ++ (++ is 30-60%) | < 1000 | – |
| Cc1cccc(C)c1-c1cc2nc(n1)NS(=O)(=O)c1cccc(c1)C(=O)NC[C@H](c1ccc(CCC(C)(C)C)cc1)O2 (stereo in doubt) [Compound 149] | +++ (+++ is >60%) | < 1000 | +++ (+++ is >60%) | < 1000 | – |
| Cc1cccc(C)c1-c1cc2nc(n1)NS(=O)(=O)c1cccc(c1)C(=O)NC[C@@H](c1ccc(CC(C)(C)C)cc1)O2 [Compound 263] | +++ (+++ is >60%) | < 1000 | ++ (++ is 30-60%) | < 1000 | – |
| Cc1cccc(C)c1-c1cc2nc(n1)NS(=O)(=O)c1cccc(c1)C(=O)N[C@H](CC(C)C)[C@@H](c1ccc(C(C)(C)C)cc1)O2 (single isomer, unassigned) [Compound 39] | +++ (+++ is >60%) | < 1000 | +++ (+++ is >60%) | < 1000 | – |
| Cc1cccc(C)c1-c1cc2nc(n1)NS(=O)(=O)c1cccc(c1)C(=O)N[C@@H]1CN(C(=O)CC(C)(C)C)C[C@H]1O2 [Compound 381] | ++ (++ is 30-60%) | 3000 to 30000 | ++ (++ is 30-60%) | – | – |
| Cc1cccc(C)c1-c1cc2nc(n1)NS(=O)(=O)c1cccc(c1)C(=O)N[C@@H]1CN(Cc3ccc(C(C)(C)C)cc3)C[C@H]1O2 [Compound 63, (3R,7R)-5-[(4-tert-Butylphenyl)methyl]-19-(2,6-dimethylphenyl)-2-oxa-15λ^6-thia-5,8,16,18,21-pentaazatetracyclo[15.3.1.110,14.03,7]docosa-1(20),10(22),11,13,17(21),18-hexaene-9,15,15-trione] | +++ (+++ is >60%) | < 1000 | +++ (+++ is >60%) | < 1000 | – |
| Cc1cccc(C)c1-c1cc2nc(n1)NS(=O)(=O)c1cccc(c1)C(=O)N[C@H](C)CO2 [Compound 95, (11R)-6-(2,6-Dimethylphenyl)-11-methyl-9-oxa-2λ^6-thia-3,5,12,19-tetraazatricyclo[12.3.1.14,8]nonadeca-1(17),4,6,8(19),14(18),15-hexaene-2,2,13-trione] | – | – | – | – | Ent. A Max Activity ([1]; Enteroid Assay A): ++ (++ is 30-60%); Ent. B Max Activity ([2]; Enteroid Assay B): ++ (++ is 30-60%); EC50 ([2]; Enteroid Assay B): 3000 to 30000 nM |
| Cc1cccc(C)c1-c1cc2nc(n1)NS(=O)(=O)c1cccc(c1)C(=O)N[C@@H]1CN(CCC3(C(F)(F)F)CC3)C[C@H]1O2 [Compound 378] | +++ (+++ is >60%) | < 1000 | +++ (+++ is >60%) | < 1000 | – |
| Cc1cccc(C)c1-c1cc2nc(n1)NS(=O)(=O)c1cccc(c1)C(=O)NC(C)(CC(C)C)CO2 (centres unmarked) [Compound 177] | +++ (+++ is >60%) | < 1000 | +++ (+++ is >60%) | < 1000 | – |
| Cc1cccc(C)c1-c1cc2nc(n1)NS(=O)(=O)c1cccc(c1)C(=O)NC[C@H](c1ccc(/C=C/C(C)(C)C)cc1)O2 (stereo in doubt) [Compound 151] | +++ (+++ is >60%) | < 1000 | +++ (+++ is >60%) | < 1000 | – |
| CCC(C)(C)C(=O)N1C[C@H]2NC(=O)c3cccc(c3)S(=O)(=O)Nc3nc(cc(-c4c(C)cccc4C)n3)O[C@@H]2C1 [Compound 369] | +++ (+++ is >60%) | 3000 to 30000 | ++ (++ is 30-60%) | – | – |
| Cc1cccc(C)c1-c1cc2nc(n1)NS(=O)(=O)c1cccc(c1)C(=O)N[C@@H]1CN(C3CC4(CCCCC4)C3)C[C@H]1O2 [Compound 377] | +++ (+++ is >60%) | < 1000 | ++ (++ is 30-60%) | < 1000 | – |
| Cc1cccc(C)c1-c1cc2nc(n1)NS(=O)(=O)c1cccc(c1)C(=O)N[C@@H]1CN(Cc3ccc(C(F)(F)F)cc3)C[C@H]1O2 [Compound 379] | +++ (+++ is >60%) | < 1000 | ++ (++ is 30-60%) | < 1000 | – |
| Cc1cccc(C)c1-c1cc2nc(n1)NS(=O)(=O)c1cccc(c1)C(=O)N[C@@H]1CN(C3CC4(CCCC4)C3)C[C@H]1O2 [Compound 56, (3R,7R)-19-(2,6-Dimethylphenyl)-5-{spiro[3.4]octan-2-yl}-2-oxa-15λ^6-thia-5,8,16,18,21-pentaazatetracyclo[15.3.1.110,14.03,7]docosa-1(20),10(22),11,13,17(21),18-hexaene-9,15,15-trione] | +++ (+++ is >60%) | < 1000 | ++ (++ is 30-60%) | < 1000 | – |
| Cc1cccc(CC2CC2)c1-c1cc2nc(n1)NS(=O)(=O)c1cccc(c1)C(=O)N[C@H](CC(C)C)CO2 [Compound 107, (11R)-6-[2-(cyclopropylmethyl)-6-methyl-phenyl]-11-isobutyl-2,2-dioxo-9-oxa-2λ^6-thia-3,5,12,19-tetrazatricyclo[12.3.1.14,8]nonadeca-1(18),4(19),5,7,14,16-hexaen-13-one] | +++ (+++ is >60%) | < 1000 | +++ (+++ is >60%) | < 1000 | – |
| Cc1cccc(C)c1-c1cc2nc(n1)NS(=O)(=O)c1cccc(c1)C(=O)N[C@@H](CC13CC4CC(CC(C4)C1)C3)CO2 (single isomer, unassigned) [Compound 110, 11-(1-adamantylmethyl)-6-(2,6-dimethylphenyl)-2,2-dioxo-9-oxa-2λ^6-thia-3,5,12,19-tetrazatricyclo[12.3.1.14,8]nonadeca-1(18),4(19),5,7,14,16-hexaen-13-one] | +++ (+++ is >60%) | < 1000 | +++ (+++ is >60%) | < 1000 | – |
| Cc1cccc(Cc2cccc(C)c2-c2cc3nc(n2)NS(=O)(=O)c2cccc(c2)C(=O)N[C@H](CC(C)C)CO3)c1 [Compound 170] | +++ (+++ is >60%) | < 1000 | +++ (+++ is >60%) | < 1000 | – |
| Cc1cccc(C)c1-c1cc2nc(n1)NS(=O)(=O)c1cccc(c1)C(=O)NCC(c1ccc([Si](C)(C)C)cc1)O2 (single isomer, unassigned) [Compound 17, 6-(2,6-dimethylphenyl)-2,2-dioxo-10-(4-trimethylsilylphenyl)-9-oxa-2λ^6-thia-3,5,12,19-tetrazatricyclo[12.3.1.14,8]nonadeca-1(18),4(19),5,7,14,16-hexaen-13-one] | – | < 1000 | – | < 1000 | – |
